SMILES strings stand for the structures.

In experiment [1] the target is T1, Serine/threonine-protein kinase D3 (Homo sapiens) (UniProt O94806).
T1 sequence (whole entry): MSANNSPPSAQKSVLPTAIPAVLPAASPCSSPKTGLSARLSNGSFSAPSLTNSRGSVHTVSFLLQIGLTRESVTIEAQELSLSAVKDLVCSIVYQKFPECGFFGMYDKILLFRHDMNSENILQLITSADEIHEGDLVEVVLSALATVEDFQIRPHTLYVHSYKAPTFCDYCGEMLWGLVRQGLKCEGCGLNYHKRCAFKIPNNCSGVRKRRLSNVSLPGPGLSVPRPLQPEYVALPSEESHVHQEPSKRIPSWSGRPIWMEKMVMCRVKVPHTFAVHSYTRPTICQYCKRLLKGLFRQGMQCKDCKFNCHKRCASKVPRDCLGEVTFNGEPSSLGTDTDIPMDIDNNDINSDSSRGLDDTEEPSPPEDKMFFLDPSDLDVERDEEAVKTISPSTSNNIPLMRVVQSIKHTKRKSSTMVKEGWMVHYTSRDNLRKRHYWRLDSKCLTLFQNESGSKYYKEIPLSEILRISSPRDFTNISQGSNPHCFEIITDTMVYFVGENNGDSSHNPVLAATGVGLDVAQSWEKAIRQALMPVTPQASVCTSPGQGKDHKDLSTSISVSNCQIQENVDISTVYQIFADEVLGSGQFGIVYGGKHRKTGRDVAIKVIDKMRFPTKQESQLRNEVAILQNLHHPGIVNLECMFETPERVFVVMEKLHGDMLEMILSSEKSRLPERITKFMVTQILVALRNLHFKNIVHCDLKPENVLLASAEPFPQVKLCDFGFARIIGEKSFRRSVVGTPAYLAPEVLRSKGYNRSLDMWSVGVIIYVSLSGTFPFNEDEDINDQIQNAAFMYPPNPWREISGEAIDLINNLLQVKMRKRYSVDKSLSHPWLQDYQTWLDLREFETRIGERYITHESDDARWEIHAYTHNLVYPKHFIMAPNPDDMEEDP
As to the kind of experiment: Residual activity of PKCnu at 0.1 uM by microplate scintillation counting.

Experiment [2] concerns the target Misshapen-like kinase 1 (Homo sapiens) (UniProt Q8N4C8). As to the kind of experiment: Residual activity of MINK1 at 10 uM by microplate scintillation counting.
In experiment [3] the target is Rho-associated protein kinase 1 (Homo sapiens) (UniProt Q13464). As to the kind of experiment: Residual activity of ROCK1 at 0.1 uM by microplate scintillation counting.
The target in experiment [4] is Serine/threonine-protein kinase MARK2 (Homo sapiens) (UniProt Q7KZI7). The experiment is described as follows: Residual activity of MARK2 at 10 uM by microplate scintillation counting.
Experiment [5] addresses Mitogen-activated protein kinase kinase kinase 8 (Homo sapiens) (UniProt P41279). The experiment is described as follows: Residual activity of COT at 10 uM by microplate scintillation counting.
The target in experiment [6] is Protein kinase C delta type (Homo sapiens) (UniProt Q05655). The experiment is described as follows: Residual activity of PKCdelta at 10 uM by microplate scintillation counting.
The target in experiment [7] is T2, Serine/threonine-protein kinase PLK4 (Homo sapiens) (UniProt O00444).
T2 sequence (whole entry): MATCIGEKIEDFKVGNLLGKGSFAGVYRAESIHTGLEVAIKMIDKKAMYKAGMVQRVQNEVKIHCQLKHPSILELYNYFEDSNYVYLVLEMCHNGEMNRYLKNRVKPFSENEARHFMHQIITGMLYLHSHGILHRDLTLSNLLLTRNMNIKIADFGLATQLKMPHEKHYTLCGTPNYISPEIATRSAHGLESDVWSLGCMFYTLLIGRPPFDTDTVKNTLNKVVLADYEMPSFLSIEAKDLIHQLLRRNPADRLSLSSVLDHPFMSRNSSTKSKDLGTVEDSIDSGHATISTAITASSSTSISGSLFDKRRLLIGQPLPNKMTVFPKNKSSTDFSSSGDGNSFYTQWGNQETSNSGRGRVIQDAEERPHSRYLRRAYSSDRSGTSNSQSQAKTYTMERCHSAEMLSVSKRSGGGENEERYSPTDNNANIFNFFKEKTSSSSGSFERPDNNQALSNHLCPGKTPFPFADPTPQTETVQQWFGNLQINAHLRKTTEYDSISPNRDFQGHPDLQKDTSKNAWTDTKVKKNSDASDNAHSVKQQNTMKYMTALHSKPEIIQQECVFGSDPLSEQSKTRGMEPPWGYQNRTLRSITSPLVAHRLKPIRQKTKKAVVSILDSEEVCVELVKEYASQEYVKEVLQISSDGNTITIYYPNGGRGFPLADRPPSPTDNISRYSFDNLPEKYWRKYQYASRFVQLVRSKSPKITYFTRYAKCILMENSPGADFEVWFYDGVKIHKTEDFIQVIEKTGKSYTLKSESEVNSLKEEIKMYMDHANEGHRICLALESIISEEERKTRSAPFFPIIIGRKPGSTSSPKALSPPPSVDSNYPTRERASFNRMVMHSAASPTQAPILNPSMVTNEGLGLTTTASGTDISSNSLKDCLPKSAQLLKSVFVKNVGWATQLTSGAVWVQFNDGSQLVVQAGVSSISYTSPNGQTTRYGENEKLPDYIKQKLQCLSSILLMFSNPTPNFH
The experiment is described as follows: Residual activity of SAK at 0.1 uM by microplate scintillation counting.

The target in experiment [8] is Ribosomal protein S6 kinase alpha-5 (Homo sapiens) (UniProt O75582). As to the kind of experiment: Residual activity of RPS6KA5 at 0.1 uM by microplate scintillation counting.
Sequence of Ribosomal protein S6 kinase alpha-5 (Homo sapiens) (O75582 whole entry, looked up): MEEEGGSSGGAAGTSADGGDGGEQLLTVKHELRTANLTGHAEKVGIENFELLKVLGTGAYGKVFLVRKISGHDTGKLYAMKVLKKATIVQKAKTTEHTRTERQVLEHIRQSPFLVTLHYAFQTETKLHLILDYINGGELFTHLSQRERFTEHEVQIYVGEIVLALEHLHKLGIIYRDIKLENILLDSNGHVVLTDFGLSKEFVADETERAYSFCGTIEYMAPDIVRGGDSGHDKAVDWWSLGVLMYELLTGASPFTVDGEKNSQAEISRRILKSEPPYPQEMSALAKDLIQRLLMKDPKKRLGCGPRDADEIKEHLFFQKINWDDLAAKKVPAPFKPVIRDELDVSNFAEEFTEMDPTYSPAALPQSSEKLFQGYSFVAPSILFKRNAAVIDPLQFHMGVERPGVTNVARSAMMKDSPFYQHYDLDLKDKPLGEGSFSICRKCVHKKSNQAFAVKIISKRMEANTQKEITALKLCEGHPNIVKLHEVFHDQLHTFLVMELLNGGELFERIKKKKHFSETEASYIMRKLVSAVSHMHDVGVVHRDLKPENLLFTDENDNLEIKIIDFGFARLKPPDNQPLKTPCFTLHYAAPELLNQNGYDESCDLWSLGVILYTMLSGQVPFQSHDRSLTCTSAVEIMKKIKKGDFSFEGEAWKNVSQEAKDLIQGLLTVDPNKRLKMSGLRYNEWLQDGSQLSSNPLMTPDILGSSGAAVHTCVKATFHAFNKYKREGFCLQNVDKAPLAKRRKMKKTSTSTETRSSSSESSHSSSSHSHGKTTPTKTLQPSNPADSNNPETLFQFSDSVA

Sequence of Misshapen-like kinase 1 (Homo sapiens) (Q8N4C8 whole entry, looked up): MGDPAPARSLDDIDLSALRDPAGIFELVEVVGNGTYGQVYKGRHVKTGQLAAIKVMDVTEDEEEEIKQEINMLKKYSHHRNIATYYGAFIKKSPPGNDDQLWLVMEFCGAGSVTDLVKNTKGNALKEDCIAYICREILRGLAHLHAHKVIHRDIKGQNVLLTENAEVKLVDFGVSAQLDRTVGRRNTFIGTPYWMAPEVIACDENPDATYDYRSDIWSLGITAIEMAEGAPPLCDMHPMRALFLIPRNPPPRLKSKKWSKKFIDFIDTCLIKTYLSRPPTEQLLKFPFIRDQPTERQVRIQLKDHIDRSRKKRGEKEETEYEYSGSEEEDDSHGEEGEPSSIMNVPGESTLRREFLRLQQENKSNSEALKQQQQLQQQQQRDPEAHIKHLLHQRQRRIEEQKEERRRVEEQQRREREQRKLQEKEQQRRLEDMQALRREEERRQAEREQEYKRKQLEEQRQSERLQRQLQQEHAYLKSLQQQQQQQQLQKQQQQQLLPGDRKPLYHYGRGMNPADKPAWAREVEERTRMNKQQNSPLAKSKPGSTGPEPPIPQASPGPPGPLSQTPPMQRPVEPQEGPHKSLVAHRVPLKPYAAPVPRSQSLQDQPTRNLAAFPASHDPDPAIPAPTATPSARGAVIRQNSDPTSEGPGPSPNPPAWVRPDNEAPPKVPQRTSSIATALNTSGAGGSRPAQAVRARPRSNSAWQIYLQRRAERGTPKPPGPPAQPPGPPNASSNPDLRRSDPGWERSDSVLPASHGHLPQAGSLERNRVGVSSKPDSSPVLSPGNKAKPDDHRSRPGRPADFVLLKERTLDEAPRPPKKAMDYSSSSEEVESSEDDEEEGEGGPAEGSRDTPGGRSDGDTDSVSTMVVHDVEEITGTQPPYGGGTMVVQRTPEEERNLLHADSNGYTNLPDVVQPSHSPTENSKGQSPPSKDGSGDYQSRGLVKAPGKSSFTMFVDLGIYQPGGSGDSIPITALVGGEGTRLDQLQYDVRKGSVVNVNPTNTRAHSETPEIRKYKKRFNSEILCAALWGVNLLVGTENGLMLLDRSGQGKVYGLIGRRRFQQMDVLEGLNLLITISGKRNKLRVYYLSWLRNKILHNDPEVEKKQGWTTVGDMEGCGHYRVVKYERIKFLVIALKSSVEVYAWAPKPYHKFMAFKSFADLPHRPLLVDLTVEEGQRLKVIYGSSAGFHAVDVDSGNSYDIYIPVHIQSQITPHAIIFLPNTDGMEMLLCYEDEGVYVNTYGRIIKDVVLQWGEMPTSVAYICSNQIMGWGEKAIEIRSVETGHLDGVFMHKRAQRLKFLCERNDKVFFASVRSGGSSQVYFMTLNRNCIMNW
Sequence of Serine/threonine-protein kinase MARK2 (Homo sapiens) (Q7KZI7 whole entry): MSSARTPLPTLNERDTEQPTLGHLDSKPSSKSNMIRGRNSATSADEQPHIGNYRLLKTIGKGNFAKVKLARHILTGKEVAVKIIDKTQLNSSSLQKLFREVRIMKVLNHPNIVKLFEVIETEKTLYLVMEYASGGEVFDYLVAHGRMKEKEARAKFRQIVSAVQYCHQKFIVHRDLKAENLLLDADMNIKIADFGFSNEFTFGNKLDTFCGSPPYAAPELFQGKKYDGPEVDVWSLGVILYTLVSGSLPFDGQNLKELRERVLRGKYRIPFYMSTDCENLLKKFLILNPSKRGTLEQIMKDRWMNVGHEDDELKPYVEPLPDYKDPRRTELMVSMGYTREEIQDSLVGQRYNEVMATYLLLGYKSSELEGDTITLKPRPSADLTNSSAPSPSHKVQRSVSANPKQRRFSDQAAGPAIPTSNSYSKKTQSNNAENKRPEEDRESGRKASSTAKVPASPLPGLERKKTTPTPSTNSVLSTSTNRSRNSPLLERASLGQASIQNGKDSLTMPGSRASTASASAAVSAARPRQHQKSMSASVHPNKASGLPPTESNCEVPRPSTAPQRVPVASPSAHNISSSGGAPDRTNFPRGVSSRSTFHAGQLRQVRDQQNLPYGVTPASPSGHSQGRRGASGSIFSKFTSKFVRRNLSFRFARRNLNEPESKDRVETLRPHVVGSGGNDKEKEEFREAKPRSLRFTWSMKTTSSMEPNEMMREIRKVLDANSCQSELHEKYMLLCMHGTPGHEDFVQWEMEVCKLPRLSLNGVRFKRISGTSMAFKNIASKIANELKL
Sequence of Mitogen-activated protein kinase kinase kinase 8 (Homo sapiens) (P41279 whole entry): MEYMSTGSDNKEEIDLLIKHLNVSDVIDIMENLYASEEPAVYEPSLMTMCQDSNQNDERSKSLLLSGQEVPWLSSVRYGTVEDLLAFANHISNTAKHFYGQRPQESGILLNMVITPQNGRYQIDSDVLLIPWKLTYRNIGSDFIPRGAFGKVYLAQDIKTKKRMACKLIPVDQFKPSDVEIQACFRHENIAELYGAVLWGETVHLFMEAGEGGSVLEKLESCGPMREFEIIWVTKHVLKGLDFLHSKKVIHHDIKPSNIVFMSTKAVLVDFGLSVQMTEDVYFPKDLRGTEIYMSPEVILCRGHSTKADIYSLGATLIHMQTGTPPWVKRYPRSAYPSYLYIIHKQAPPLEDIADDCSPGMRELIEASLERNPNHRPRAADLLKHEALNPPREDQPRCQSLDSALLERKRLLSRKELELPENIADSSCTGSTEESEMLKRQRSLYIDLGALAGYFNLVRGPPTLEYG
Sequence of Rho-associated protein kinase 1 (Homo sapiens) (Q13464 2-1354 limits assumed): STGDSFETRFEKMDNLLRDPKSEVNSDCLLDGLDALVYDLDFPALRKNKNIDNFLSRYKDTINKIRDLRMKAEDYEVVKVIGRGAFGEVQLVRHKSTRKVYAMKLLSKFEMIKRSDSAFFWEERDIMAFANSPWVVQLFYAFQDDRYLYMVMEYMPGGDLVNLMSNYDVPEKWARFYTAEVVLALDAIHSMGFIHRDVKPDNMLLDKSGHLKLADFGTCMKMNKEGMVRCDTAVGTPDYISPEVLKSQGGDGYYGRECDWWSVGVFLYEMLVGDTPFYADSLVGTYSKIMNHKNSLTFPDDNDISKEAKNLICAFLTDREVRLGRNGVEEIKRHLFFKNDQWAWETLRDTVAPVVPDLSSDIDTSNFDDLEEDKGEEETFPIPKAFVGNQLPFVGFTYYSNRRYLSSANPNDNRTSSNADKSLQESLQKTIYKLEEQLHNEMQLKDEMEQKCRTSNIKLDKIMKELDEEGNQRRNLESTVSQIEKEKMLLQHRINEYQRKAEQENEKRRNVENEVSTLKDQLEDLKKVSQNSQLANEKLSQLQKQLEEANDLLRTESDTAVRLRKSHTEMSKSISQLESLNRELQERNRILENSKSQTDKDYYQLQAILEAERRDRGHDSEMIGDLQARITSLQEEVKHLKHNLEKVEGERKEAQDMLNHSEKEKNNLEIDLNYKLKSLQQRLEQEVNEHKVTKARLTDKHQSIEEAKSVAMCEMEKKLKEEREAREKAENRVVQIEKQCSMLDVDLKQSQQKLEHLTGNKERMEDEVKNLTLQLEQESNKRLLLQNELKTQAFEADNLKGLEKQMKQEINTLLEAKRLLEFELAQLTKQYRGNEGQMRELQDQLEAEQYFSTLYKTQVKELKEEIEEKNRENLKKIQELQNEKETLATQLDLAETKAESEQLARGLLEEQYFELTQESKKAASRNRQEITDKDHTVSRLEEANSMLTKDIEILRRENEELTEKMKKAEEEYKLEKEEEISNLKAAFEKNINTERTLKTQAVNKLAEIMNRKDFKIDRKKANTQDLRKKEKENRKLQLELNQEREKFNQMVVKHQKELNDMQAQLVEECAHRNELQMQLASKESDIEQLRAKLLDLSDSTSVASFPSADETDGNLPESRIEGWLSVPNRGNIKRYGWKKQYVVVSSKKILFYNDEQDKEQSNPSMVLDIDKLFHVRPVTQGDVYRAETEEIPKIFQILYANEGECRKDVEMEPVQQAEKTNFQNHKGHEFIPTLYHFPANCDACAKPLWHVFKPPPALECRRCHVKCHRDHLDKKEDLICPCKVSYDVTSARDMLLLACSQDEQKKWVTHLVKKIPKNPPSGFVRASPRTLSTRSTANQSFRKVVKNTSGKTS

As for `COc1cc2c(Oc3ccc(-c4nc5ccccc5s4)cc3)ncnc2cc1OCCCN1CCCC1`, the residual activity in experiment [1] came to 93%; in experiment [2], 36%; in experiment [3], 96%; in experiment [4] it was 72%; in experiment [5], 96%; in experiment [6] it was 72%. Also, the residual activity in experiment [7] was 56%; in experiment [8], 96%.

`COc1cc2c(Oc3ccc(-c4nc5ccccc5s4)cc3F)ncnc2cc1OCCCN1CCN(C)CC1`: the residual activity in experiment [1] was found to be 102%; in experiment [2] it was 20%; in experiment [3], 101%; in experiment [4] it was 60%; in experiment [5] it was 94%; in experiment [6], 86%. Further, the values for the residual activity in experiment [7] and in experiment [8] were 80% and 86%, respectively.

With `COc1cc2c(Oc3ccc(-c4nc5ccccc5s4)cc3)ncnc2cc1OCCCN1CCN(C)CC1`, the residual activity was 86% in experiment [1]; 21% in experiment [2]; 98% in experiment [3]; 67% in experiment [4]; 115% in experiment [5]; 86% in experiment [6]. Also, the residual activity came to 63% in experiment [7] and 89% in experiment [8].
